Reference: patent US20060009478A1, “Methods for the treatment of back pain” (priority 2003, published 2006)

System: patients with moderate to severe chronic pain due to osteoarthritis of the hip or knee
Assay: WOMAC Osteoarthritis Index (pain, stiffness, physical function subscales, total score), 3-week osteoarthritis study
Format: in vivo, human
Details: LOCF; for WOMAC osteoarthritis physical function subscale, actual value, mean / WOMAC osteoarthritis physical function subscale, actual value, median / WOMAC osteoarthritis stiffness subscale, actual value, mean / WOMAC osteoarthritis stiffness subscale, actual value, median / WOMAC osteoarthritis total score, actual value, mean / WOMAC osteoarthritis total score, actual value, median / WOMAC osteoarthritis pain subscale, actual value, mean / WOMAC osteoarthritis pain subscale, actual value, median: intent to treat population
Description: Back pain can be associated with an arthritic condition or inflammation associated with chronic conditions. […] The methods comprise administering to a human subject an amount of an opioid antagonist or the combination of an opioid agonist and an opioid antagonist that is effective to enhance potency of the agonist and/or to alleviate one or more symptoms or signs of an arthritic condition or inflammation associated with a chronic condition, including for example, as measured by a suitable index, scale or measure. The attenuation of one or more symptoms or signs of an arthritic condition or of inflammation associated with a chronic condition may be measured on the WOMAC Osteoarthritis Index or one of its subscales (in other words, the pain, stiffness, or physical function subscales of the WOMAC Osteoarthritis Index). Any suitable version of the WOMAC OA Index may be used, including, for example, Version 3.0 or Version 3.1. Any suitable scale may be used as well. The WOMAC OA Index is available in Likert and Visual Analog scaled formats, either of which may be employed in the present methods. […] The WOMAC values represent a subjective surrogate marker. Alternatively or additionally, the attenuation of one or more symptoms or signs may be measured on another suitable index, scale or measure, such the Australian/Canadian (AUSCAN) Osteoarthritis Hand Index or the Osteoarthritis Global Index (OGI). The AUSCAN 3.1 Index and User Guide are currently available from http://www.womac.org/contact/index.cfm, as are the WOMAC 3.1 Osteoarthritis Index and User Guide. Another suitable measure of attenuation is the Definition of Improvement in Rheumatoid Arthritis described in Felson et al., Arthritis & Rheumatism 38:727-735 (1995) incorporated herein by reference. This measure, which also may be designated as the ACR (American College of Rheumatology) 20 improvement, is a composite defined as both improvement of 20% in the number of tender and number of swollen joints, and a 20% improvement in three of the following five: patient global, physician global, patient pain, patient function assessment, and C-reactive protein (CRP). Another suitable measure is described by Paulus et al., Arthritis & Rheumatism 33:477-484 (1990) which is incorporated herein by reference. Paulus et al. provides a definition of improvement based on a set of measures that discriminate between active second-line drug treatment and placebo. These include a 20% improvement in morning stiffness, erythrocyte sedimentation rate (ESR), joint tenderness score, and joint swelling score and improvement by at least 2 grades on a 5-grade scale (or from grade 2 to grade 1) for patient and physician global assessments of current disease severity. Current disease severity can be measured in a variety of ways, including patient or physician global assessments, patient or physician assessments of joint tenderness, joint swelling stiffness, pain, or physical function, cytokine levels, B-cell or T-cell subtype ratios, erythrocyte sedimentation rate (ESR), or C-reactive protein. Suitable measures of attenuation of one or more symptoms or signs, of inhibiting the progression of an arthritic condition or chronic condition, or of reversing tissue or cellular damage include measuring current disease severity. Other indexes, definitions, measures, or scales may also be used for measuring attenuation of one or more symptoms or signs, inhibition of progression, or reversal of tissue or cellular damage.
A daily diary was to be utilized to record overall pain intensity (PI) and other signs and symptoms.

SMILES: COc1ccc2c3c1O[C@H]1C(=O)CC[C@@]4(O)[C@@H](C2)N(C)CC[C@]314 [OXY QID, oxycodone]
- WOMAC osteoarthritis pain subscale, actual value at Week 1, mean (ITT): 263.2
- WOMAC osteoarthritis pain subscale, actual value at Week 1, median (ITT): 279.0
- WOMAC osteoarthritis physical function subscale, actual value, mean (Week 1): 891.8
- WOMAC osteoarthritis physical function subscale, actual value, median (Week 1): 930.5
- WOMAC osteoarthritis stiffness subscale, actual value, mean (Week 1): 120.3
- WOMAC osteoarthritis stiffness subscale, actual value, median (Week 1): 129.5
- WOMAC osteoarthritis total score, actual value, mean (Week 1): 1275.3
- WOMAC osteoarthritis total score, actual value, median (Week 1): 1312.5
- WOMAC osteoarthritis pain subscale, actual value, mean (Week 2): 245.0
- WOMAC osteoarthritis pain subscale, actual value, median (Week 2): 227.5
- WOMAC osteoarthritis physical function subscale, actual value, mean (Week 2): 847.6
- WOMAC osteoarthritis physical function subscale, actual value, median (Week 2): 880.0
- WOMAC osteoarthritis stiffness subscale, actual value, mean (Week 2): 111.4
- WOMAC osteoarthritis stiffness subscale, actual value, median (Week 2): 119.5
- WOMAC osteoarthritis total score, actual value, mean (Week 2): 1204.0
- WOMAC osteoarthritis total score, actual value, median (Week 2): 1222.5
- WOMAC osteoarthritis pain subscale, actual value, mean (Week 3): 238.7
- WOMAC osteoarthritis pain subscale, actual value, median (Week 3): 225.0
- WOMAC osteoarthritis physical function subscale, actual value, mean (Week 3): 820.0
- WOMAC osteoarthritis physical function subscale, actual value, median (Week 3): 867.0
- WOMAC osteoarthritis stiffness subscale, actual value, mean (Week 3): 106.3
- WOMAC osteoarthritis stiffness subscale, actual value, median (Week 3): 109.0
- WOMAC osteoarthritis total score, actual value, mean (Week 3): 1164.9
- WOMAC osteoarthritis total score, actual value, median (Week 3): 1191.0
